Literature values in patent publication US20230172943A1 (Mylan Specialty L.P., priority 2020, published 2023).

Conditions: orally delivered, humans

Tmax (time to reach maximum concentration): 4 to 6 h
time to reach the therapeutic concentration that enables the onset of action: 2 to 3 h
SMILES: Cc1cnc(NC(=O)C2=C(O)c3ccccc3S(=O)(=O)N2C)s1 [meloxicam, 4-hydroxy-2-methyl-N-(5-methyl-2-thiazolyl)-2H-1,2-benzothiazine-3-carboxamide-1,1-dioxide]
